{"source": "patent US12643855B2", "about": "“Fluorogenic dimer compound, useful as a probe for detection of endogenous receptors” (UNIVERSITE DE STRASBOURG, priority 2020, dated 2026)", "key": {"[1]": {"conditions": "in MeOH; cited from earlier work"}, "[2]": {"tested_on": "GFP-fused oxytocin receptor (GFP-OTR)", "assay": "Fluorescence confocal microscopy on living HEK293 cells expressing GFP-OTR, no-wash conditions", "format": "cell-based", "conditions": "500 nM", "procedure": "FIG. 1: Confocal microscopy studies of dCy5.5-PEG-CBT and mCy5.5-PEG-CBT on living HEK 293 cells expressing OTR-GFP fusion under no-wash conditions. Cells were incubated with the ligands for 5 min at room temperature prior to the imaging.\nHEK293 cells expressing the GFP-fused oxytocin receptor (GFP-OTR) and wild-type HEK293 cells were cultured in Eagle's minimal essential medium (MEM, Invitrogen 21090) with 10% of heat-inactivated fetal bovine serum, 100 U/mL of penicillin, 100 µg/mL of streptomycin, 2 mM of glutamine and 50 µg/mL of hygromycin B for GFP-OTR cells at 37° C. in a humidified 5% CO2 atmosphere. 70-80% cell confluence was maintained by removal of a portion of the culture and replacement with fresh medium twice a week. For confocal microscopy studies, cells were seeded onto 35 mm ibiTreat Ibidi Polymer Coverslip at a density of 100 000 cells/Ibidi 24 h before microscopy.\n[…] For competition experiments, a mixture of 10 nM of fluorescent ligands and 2 μM of carbetocin was used. Fluorescence confocal microscopy experiments were performed on a Leica TCS SPE-II microscope with a HXC PL APO 63×/1.40 OIL CS objective. GFP excitation was performed with a 488 nm 10 mW laser, the excitation of Cy5.5 was performed with a 635 nm 18 mW laser. Image treatment was proceeded using ImageJ (Wayne Rasband, National Institute of Mental Health, Bethesda)."}, "[3]": {"target": "T1, endogenous OTR (oxytocin receptor) in mammary glands (Mus musculus, UniProt P97926)", "T1 construct": "target-specific imaging of the naturally expressed receptor in living mice; from tissue; host or cells: living lactating Swiss mice (mammary glands), in vivo imaging", "T1 sequence (P97926 1-388)": "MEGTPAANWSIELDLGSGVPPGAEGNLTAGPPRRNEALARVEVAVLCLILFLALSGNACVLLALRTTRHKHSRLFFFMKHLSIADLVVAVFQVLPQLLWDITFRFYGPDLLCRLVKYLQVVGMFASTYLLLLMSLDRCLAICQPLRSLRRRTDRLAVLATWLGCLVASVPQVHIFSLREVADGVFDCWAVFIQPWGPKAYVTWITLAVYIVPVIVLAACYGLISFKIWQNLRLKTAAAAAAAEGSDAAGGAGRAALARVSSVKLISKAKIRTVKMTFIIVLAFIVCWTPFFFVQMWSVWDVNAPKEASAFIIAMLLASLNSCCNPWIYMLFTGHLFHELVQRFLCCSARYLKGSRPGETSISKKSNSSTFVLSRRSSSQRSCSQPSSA", "assay": "In vivo fluorescence biodistribution study (small animal fluorescence imaging)", "conditions": "lactating mice, 7.5 nmol i.v., imaged 30 min after", "quoted_text": "Representative images of at least 3 biological replicates.\nTwelve-week-old pregnant female Swiss mice were purchased from Janvier Laboratories (France). Animals were maintained under controlled environmental conditions (20±2° C.) with a relative humidity (50±10%) and a 12 hour light/dark cycle in Individually ventilated cages (GM500, Techniplast) with bedding made from spruce wood chips (Safe, villeAugy, France) and enriched with nestlets. Food (autoclavable diet, D04, Safe, France) and tap water were available ad libitum. Animal experimentation was conducted with the approval of the French ministry of agriculture and the Ethics local committee for animal experimentation of the Strasbourg University (CREMEAS) under the authorization number #11974-2017103010101372.\nAnimal fluorescence imaging was performed using a luminograph (NightOwl, Berthold Technologies). Lactating mice 11 days after delivery were anesthetized intraperitoneally (Ketamine 150 mg/kg, xylazine 10 mg/kg). Fluorescent compounds (100 μL containing 7.5 nmol in 0.9% NaCl) with or without non-fluorescent carbetocin (100 μL containing 450 nmol in 0.9% NaCl) were administered intravenously (tail vein). […] Mice were imaged using a halogen lamp (75 W, 340-750 nm) and emission of the dyes was recorded using a 630/700 nm filter. […]"}, "[4]": {"conditions": "in EtOH; cited from earlier work"}, "[5]": {"conditions": "in EtOH; cited from earlier work", "remark": "listed apart in the source"}}, "note": "Read-outs that look alike come from different tables or passages of the source.", "data": [{"compound": "CCCCCCCCCCCCCCCCCCN1/C(=C/C=C/C=C/C2=[N+](CCCCCCCCCCCCCCCCCC)c3ccccc3C2(C)C)C(C)(C)c2ccccc21.[O-][Cl+3]([O-])([O-])[O-]", "note": "[DID]", "values": [{"measurement": "Fluorescence quantum yield (QY) of the reference", "setting": "[1]", "value": 33, "unit": "%"}]}, {"compound": "CC[C@H](C)[C@@H]1NC(=O)[C@H](Cc2ccc(OC)cc2)NC(=O)CCCSC[C@@H](C(=O)N2CCC[C@H]2C(=O)N[C@@H](CCCCn2cc(CNC(=O)CCNC(=O)CCC(=O)NCCOCCOCCNC(=O)CCC(=O)NCCOCCOCCNC(=O)CCC(=O)NCCOCCOCCNC(=O)CCCCCN3/C(=C/C=C/C=C/C4=[N+](CCOCCOCCOCCOCCOCCOCCOCCOC)c5ccc6ccccc6c5C4(C)C)C(C)(C)c4c3ccc3ccccc43)nn2)C(=O)NCC(N)=O)NC(=O)[C@H](CC(N)=O)NC(=O)[C@H](CCC(N)=O)NC1=O.O=C([O-])C(F)(F)F", "note": "[mCy5.5-PEG-CBT]", "values": [{"measurement": "Image background from unbound probe", "setting": "[2]", "value": "strong background"}, {"measurement": "Off-target fluorescence signal", "setting": "[3]", "value": "strong off-target fluorescence"}]}, {"compound": "Rhodamine 800", "values": [{"measurement": "Fluorescence quantum yield (QY) of the reference", "setting": "[4]", "value": 25, "unit": "%"}, {"measurement": "Fluorescence quantum yield (QY) of the reference", "setting": "[5]", "value": 25, "unit": "%"}]}]}
